Measured values as given in patent US20090275557A1, “Novel Composition for Treatment of Diseases Related to Activated Lymphocytes” (Immune Control, Inc., priority 2008, published 2009).
Values joined by “and” are separate entries in the source; they are usually repeats but may differ in a detail not shown here. Equal entries are not always repeated. Where two headings read alike, the source gives them in different places.

What was measured:
[1] = test system: bovine type 2 collagen immunized female Lewis rats; assay: Collagen-induced arthritis assay, oral gavage treatment, ankle diameter; assay type: in vivo, rat; conditions: larger standard errors at each dose
Experimental: (§1) Female Lewis rats (CR) weighing between 125-200 g were immunized with bovine type 2 collagen, 2 mg/ml in a 1:1 solution of 0.01 N acetic acid and Freund's incomplete adjuvant (“FIA”). A 0.1 ml portion of the collagen solution was injected id (intradermally) at three sites on the rat. Rats were immunized with the collagen solution on days 1 and 6 of the study. […] On day 9 (study day “0”), baseline ankle diameters were measured. On days 10-15 (study days 1-6), the rats were then treated, via oral gavage, with either 1, 5, or 25 mg/kg of one of ICI-1259 or ICI-1260, prepared as described below. Ankle diameter measurements were measured on each of days 10-16.
Separate solutions of ICI-1259 and ICI-1260 were prepared in Dulbecco's PBS (pH 7) (“vehicle”) at 1 mg/ml. Control animals, who had not been immunized, were given vehicle without any compound. In a further control, immunized rats were given vehicle without ICI-1259 or ICI-1260. In still another control, immunized rats were treated with Enbrel™ at 10 mg/kg.

[2] = Pharmacokinetic study, oral gavage in fasted male Sprague-Dawley rats; assay type: in vivo, rat
Experimental: ICI-1259 and ICI-1260 were supplied as powders and stored frozen until used. Dosing solutions in phosphate buffered saline were prepared at 1 mg/ml. These solutions were then evaluated in fasted male Sprague-Dawley rats. The rats were fitted with a jugular vein cannula for blood sampling. Rats were also fitted with an additional jugular vein cannula, or intradudodenal cannula as needed. Rats were given a commercial rodent diet ad libitum prior to study initiation. Food was then withheld from the animals for a minimum of twelve hours prior to dosing, until four hours postdose when food was returned. Water was supplied ad libitum. Three rats were used in each study, unless otherwise indicated.
For both ICI-1259 and ICI-1260, rats were given a 10 mg/kg dose from a 1 mg/ml solution. The appropriate volume of solution was given as a single bolus dose at time zero on the day of dosing. Blood samples were taken at predose, 5 minutes after dosing, 10 minutes after dosing, 15 minutes after dosing, 30 minutes after dosing, 1 hour after dosing, 2 hours after dosing, 4 hours after dosing, 6 hours after dosing, and 8 hours after dosing.

5-HT1D(h) = biological target: T1, 5-HT1D(h) (Homo sapiens, UniProt P28221); assay: 5-HT receptor binding, displacement of tritiated ligands; conditions: at 10 μM
T1 construct: from tissue
Experimental: (§2) 5-HT receptor binding was measured using membrane preparations of brain regions known to be enriched with given 5-HT receptor subtype(s). The assay subsequently measured the displacement of tritiated ligands known to bind to a given 5-HT subtype.
(§3) A receptor binding assay was performed for ICI-1259 and ICI-1260 showing that at 10 μM, these compounds bind receptors 5-HT1A(h), 5-HT1B, 5-HT1D(h), 5-HT2A, 5-HT2A(h), 5-HT2B, 5-HT2C, 5-HT3,5-HT3(h), 5-HT4, 5-HT5A(h), 5-HT6, and 5-HT7.

5-HT1B = assay: as above; conditions: at 10 μM
Experimental: as §2, §3

5-HT3(h) = biological target: T2, 5-HT3(h) (Homo sapiens, UniProt P46098); assay: as above; conditions: at 10 μM
T2 construct: from tissue
T2 sequence (P46098 24-478): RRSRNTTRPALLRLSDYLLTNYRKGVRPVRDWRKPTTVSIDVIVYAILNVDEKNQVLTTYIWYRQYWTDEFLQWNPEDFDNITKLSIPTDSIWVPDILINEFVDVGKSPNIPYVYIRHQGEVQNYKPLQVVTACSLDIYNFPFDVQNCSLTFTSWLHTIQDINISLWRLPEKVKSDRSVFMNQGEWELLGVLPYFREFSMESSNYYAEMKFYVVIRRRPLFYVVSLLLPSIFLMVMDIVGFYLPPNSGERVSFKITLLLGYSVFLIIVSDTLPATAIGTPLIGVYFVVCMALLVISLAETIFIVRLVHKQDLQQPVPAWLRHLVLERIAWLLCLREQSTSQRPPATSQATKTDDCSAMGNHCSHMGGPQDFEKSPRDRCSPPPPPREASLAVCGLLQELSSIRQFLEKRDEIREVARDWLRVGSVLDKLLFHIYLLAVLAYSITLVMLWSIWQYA
Experimental: as §2, §3

5-HT3 = assay: as above; conditions: at 10 μM
Experimental: as §2, §3

5-HT2C = assay: as above; conditions: at 10 μM
Experimental: as §2, §3

[3] = test system: bovine type 2 collagen immunized rats; assay: Collagen-induced arthritis assay, IP injection protocol, ankle diameter; assay type: in vivo, rat
Experimental: as §1
Compounds ICI-1259, ICI-1260, ICI-1505, and ICI-1506 were administered via IP injection to treat collagent-induced arthritis in a variation of the experiments described above. Under the protocol of the IP injection experiments, animal were immunized with Bovine Type 2 collagen as previously described. […] On day 9 (study day “0”), baseline ankle diameters were measured. On days 10-12 (study days 1-3), the rats were then treated once per day, via IP injection, with one of ICI-1259, ICI-1260, ICI-1505, or ICI-1506 at 10 mg/kg. Ankle diameter in the immunized rodents was measured on each of days 10-13 as well as on day 14. […] See FIG. 18 (ICI-1259, ICI-1260, and ICI-1505) and FIG. 19 (ICI-1506).
In a separate study, using the IP injection protocol described above, ICI-1259 and 1260 were each dosed at 2 mg/kg and 0.4 mg/kg.

[4] = individual rats, oral gavage 10 mg/kg, 10 mg/kg
[5] = male, Sprague-Dawley, rat, plasma, po, 10 mg/kg, individual rats, oral gavage 10 mg/kg
[6] = male, Sprague-Dawley, rat, plasma, po, 10 mg/kg, mean, oral gavage 10 mg/kg

T1 sequence (P28221 whole entry): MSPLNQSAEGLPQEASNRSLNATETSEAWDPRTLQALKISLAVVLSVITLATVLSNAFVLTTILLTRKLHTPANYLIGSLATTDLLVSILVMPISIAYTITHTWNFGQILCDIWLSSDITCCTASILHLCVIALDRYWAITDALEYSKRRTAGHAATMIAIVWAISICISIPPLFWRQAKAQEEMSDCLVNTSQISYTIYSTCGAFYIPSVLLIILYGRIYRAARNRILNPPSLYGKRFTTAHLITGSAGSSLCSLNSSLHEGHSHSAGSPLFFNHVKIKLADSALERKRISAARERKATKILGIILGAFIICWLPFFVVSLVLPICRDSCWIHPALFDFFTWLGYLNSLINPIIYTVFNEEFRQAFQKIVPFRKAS

dose absorbed after oral dosing ([2]; indirectly indicated by the average bioavailability, oral 10 mg/kg): approximately 26%
AUClast [2, 4]: 84.9 ng·h/mL and 95.9 ng·h/mL
Cmax [2, 4]: 22.2 ng/mL and 25.9 ng/mL
Tmax [2, 4]: 1.0 h
t1/2 [2, 4]: 2.6 h
Plasma concentration ([2]; individual rats, oral gavage 10 mg/kg, 0.083 hr, BLOQ = below limit of quantitation (1 ng/mL), 10 mg/kg): 1.33 ng/mL and BLOQ
Plasma concentration ([2]; individual rats, oral gavage 10 mg/kg, 0.25 hr, 10 mg/kg): 9.32 ng/mL and 2.68 ng/mL and 7.31 ng/mL
Plasma concentration ([2]; individual rats, oral gavage 10 mg/kg, 0.50 hr, 10 mg/kg): 8.00 ng/mL and 3.02 ng/mL and 6.16 ng/mL
Plasma concentration ([2]; individual rats, oral gavage 10 mg/kg, 1.0 hr, 10 mg/kg): 5.33 ng/mL and 5.38 ng/mL and 25.9 ng/mL
Plasma concentration ([2]; individual rats, oral gavage 10 mg/kg, 2.0 hr, 10 mg/kg): 22.2 ng/mL and 24.0 ng/mL
Plasma concentration ([2]; individual rats, oral gavage 10 mg/kg, 4.0 hr, 10 mg/kg): 4.89 ng/mL and 11.7 ng/mL and 7.39 ng/mL
Plasma concentration ([2]; individual rats, oral gavage 10 mg/kg, 6.0 hr, 10 mg/kg): 19.8 ng/mL and 9.71 ng/mL and 8.98 ng/mL
Plasma concentration ([2]; individual rats, oral gavage 10 mg/kg, 8.0 hr, 10 mg/kg): 2.87 ng/mL and 3.93 ng/mL
bioavailability ([2]; individual rats, oral gavage 10 mg/kg, dose normalized AUC divided by average intravenous AUC, 10 mg/kg): 9.0%
AUC∞ ([2]; individual rats, oral gavage 10 mg/kg, extrapolated to infinity, 10 mg/kg): 111 ng·h/mL
AUC(0-t) [2, 5]: 112 ng·h/mL
half-life [2, 5]: 2.2 h
concentration at 0.083 hr ([2]; male, Sprague-Dawley, rat, plasma, po, 10 mg/kg, individual rats, oral gavage 10 mg/kg, 0.083 hr, BLOQ = below limit of quantitation (1 ng/mL)): 1.48 ng/mL
concentration at 2 hr ([2]; male, Sprague-Dawley, rat, plasma, po, 10 mg/kg, individual rats, oral gavage 10 mg/kg, 2.0 hr): 33.8 ng/mL
concentration at 8 hr ([2]; male, Sprague-Dawley, rat, plasma, po, 10 mg/kg, individual rats, oral gavage 10 mg/kg, 8.0 hr): 3.13 ng/mL
bioavailability ([2]; male, Sprague-Dawley, rat, plasma, po, 10 mg/kg, individual rats, oral gavage 10 mg/kg, dose normalized AUC divided by average intravenous AUC, read-out: Bioavailability): 13%
AUC(0-inf) ([2]; male, Sprague-Dawley, rat, plasma, po, 10 mg/kg, individual rats, oral gavage 10 mg/kg, extrapolated to infinity): 94 ng·h/mL
Cmax ([2]; male, Sprague-Dawley, rat, plasma, po, 10 mg/kg, individual rats, oral gavage 10 mg/kg, read-out: Cmax): 33.8 ng/mL
Tmax ([2]; male, Sprague-Dawley, rat, plasma, po, 10 mg/kg, individual rats, oral gavage 10 mg/kg, read-out: tmax): 2 h
bioavailability ([2]; male, Sprague-Dawley, rat, plasma, po, 10 mg/kg, mean (average), oral gavage 10 mg/kg, read-out: Bioavailability): 11%
AUC(0-t) [2, 6]: 97.7 ng·h/mL
half-life [2, 6]: 2.4 h
concentration at 0.083 hr ([2]; male, Sprague-Dawley, rat, plasma, po, 10 mg/kg, mean, oral gavage 10 mg/kg, 0.083 hr): 1.41 ng/mL
concentration at 0.25 hr ([2]; male, Sprague-Dawley, rat, plasma, po, 10 mg/kg, mean, oral gavage 10 mg/kg, 0.25 hr): 6.44 ng/mL
concentration at 0.5 hr ([2]; male, Sprague-Dawley, rat, plasma, po, 10 mg/kg, mean, oral gavage 10 mg/kg, 0.50 hr): 5.73 ng/mL
concentration at 1 hr ([2]; male, Sprague-Dawley, rat, plasma, po, 10 mg/kg, mean, oral gavage 10 mg/kg, 1.0 hr): 12.2 ng/mL
concentration at 2 hr ([2]; male, Sprague-Dawley, rat, plasma, po, 10 mg/kg, mean, oral gavage 10 mg/kg, 2.0 hr): 26.7 ng/mL
concentration at 4 hr ([2]; male, Sprague-Dawley, rat, plasma, po, 10 mg/kg, mean, oral gavage 10 mg/kg, 4.0 hr): 7.99 ng/mL
concentration at 6 hr ([2]; male, Sprague-Dawley, rat, plasma, po, 10 mg/kg, mean, oral gavage 10 mg/kg, 6.0 hr): 12.8 ng/mL
concentration at 8 hr ([2]; male, Sprague-Dawley, rat, plasma, po, 10 mg/kg, mean, oral gavage 10 mg/kg, 8.0 hr): 3.31 ng/mL
AUC(0-inf) ([2]; male, Sprague-Dawley, rat, plasma, po, 10 mg/kg, mean, oral gavage 10 mg/kg, extrapolated to infinity): 102 ng·h/mL
Cmax ([2]; male, Sprague-Dawley, rat, plasma, po, 10 mg/kg, mean, oral gavage 10 mg/kg, read-out: Cmax): 27.3 ng/mL
Tmax ([2]; male, Sprague-Dawley, rat, plasma, po, 10 mg/kg, mean, oral gavage 10 mg/kg, read-out: tmax): 1.7 h
Dose Normalized AUClast ([2]; mean, oral gavage 10 mg/kg): 9.77 kg·ng·h/mL/mg
Dose Normalized AUC∞ ([2]; mean, oral gavage 10 mg/kg): 10.2 kg·ng·h/mL/mg
receptor binding (5-HT1D(h)): bind
receptor binding (5-HT1B): bind
receptor binding (5-HT3(h)): bind
receptor binding (5-HT3): bind
receptor binding (5-HT2C): bind
SMILES: NCC(=O)NCCCN1CCC(CCCN2c3ccccc3Sc3ccc(C(F)(F)F)cc32)CC1 [ICI-1260, 2-amino-N-(3-(4-(3-(2-(trifluoromethyl)-10H-phenothiazin-10-yl)propyl)piperidin-1-yl)propyl)acetamide]
reduction in ankle swelling ([1]; oral 5 mg/kg): showed a reduction in ankle swelling
reduction in ankle swelling ([1]; oral 25 mg/kg): showed a reduction in ankle swelling
Dose Normalized AUClast [2, 4]: 11.2 kg·ng·h/mL/mg and 8.49 kg·ng·h/mL/mg and 9.59 kg·ng·h/mL/mg
Dose Normalized AUC∞ [2, 4]: 9.40 kg·ng·h/mL/mg and 11.1 kg·ng·h/mL/mg
reduction in ankle swelling (ankle diameter) ([3]; IP injection 0.4 mg/kg): Statistically significant results were only observed for ICI-1260 at 2 mg/kg
reduction in ankle swelling (ankle diameter) ([3]; IP injection 2 mg/kg, study days 3 and 4): Statistically significant results
reduction in ankle swelling (ankle diameter) ([3]; IP injection 10 mg/kg once per day, study days 1-3, observed on study days 2-4): statistically significant results were observed
